Assay results: ChEMBL document CHEMBL5357031, “Design and Synthesis of Cytotoxic Water-Soluble Rocaglaol Derivatives against HEL Cells by Inhibiting Fli-1” (J Nat Prod, 2024)
Active and inactive are the calls of the source.

How the values were obtained:
[1] = tested on: HEL; test: Induction of apoptosis in HEL cells assessed as downregulation of caspase-3 expression at 0.1 to 0.4 uM incubated for 48 hrs by Western blot analysis; format: functional, cell-based; settings: Homo sapiens, dose 0.1-0.4 µM
[2] = tested on: HEL; test: Induction of apoptosis in HEL cells assessed as upregulation of cleaved caspase-9 expression at 0.1 to 0.4 uM incubated for 48 hrs by Western blot analysis; format: functional, cell-based; settings: Homo sapiens, dose 0.1-0.4 µM
[3] = molecular target: T1, Friend leukemia integration 1 transcription factor (Homo sapiens) (UniProt Q01543); test: Binding affinity to Fli-1 in HEL cells assessed as increase in thermal stability at 0.4 uM preincubated for 1 hr followed by heating at 40 to 60 degreeC by CETSA assay; format: cell-based
T1 sequence (whole entry): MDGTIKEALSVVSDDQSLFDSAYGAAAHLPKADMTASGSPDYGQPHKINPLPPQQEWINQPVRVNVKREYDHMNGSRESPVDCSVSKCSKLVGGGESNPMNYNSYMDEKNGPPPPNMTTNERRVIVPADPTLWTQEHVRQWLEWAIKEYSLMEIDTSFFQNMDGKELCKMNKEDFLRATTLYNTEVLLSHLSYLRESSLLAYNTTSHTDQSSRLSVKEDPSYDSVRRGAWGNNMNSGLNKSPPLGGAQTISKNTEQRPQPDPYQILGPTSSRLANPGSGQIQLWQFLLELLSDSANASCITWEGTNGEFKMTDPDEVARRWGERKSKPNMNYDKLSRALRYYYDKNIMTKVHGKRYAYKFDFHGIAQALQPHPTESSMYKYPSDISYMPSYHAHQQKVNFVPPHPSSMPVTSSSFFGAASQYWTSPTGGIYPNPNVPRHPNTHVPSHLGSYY

[4] = tested on: HEL; test: Induction of apoptosis in HEL cells assessed as downregulation of PARP expression at 0.1 to 0.4 uM incubated for 48 hrs by Western blot analysis; format: functional, cell-based; settings: Homo sapiens, dose 0.1-0.4 µM
[5] = tested on: HEL; test: Induction of apoptosis in HEL cells assessed as downregulation of caspase-9 expression at 0.1 to 0.4 uM incubated for 48 hrs by Western blot analysis; format: functional, cell-based; settings: Homo sapiens, dose 0.1-0.4 µM
[6] = tested on: HEL; test: Induction of apoptosis in HEL cells assessed as upregulation of cleaved PARP expression at 0.1 to 0.4 uM incubated for 48 hrs by Western blot analysis; format: functional, cell-based; settings: Homo sapiens, dose 0.1-0.4 µM
[7] = molecular target: T1, Friend leukemia integration 1 transcription factor (Homo sapiens); test: Inhibition of Fli-1 in HEL cells by Western blot analysis; format: cell-based; settings: dose 0.1-0.4 µM
[8] = tested on: HEL; test: Induction of apoptosis in HEL cells assessed as upregulation of cleaved caspase-3 expression at 0.1 to 0.4 uM incubated for 48 hrs by Western blot analysis; format: functional, cell-based; settings: Homo sapiens, dose 0.1-0.4 µM

COc1cc(OC)c2c(c1)O[C@@]1(c3ccc(OCCCCCN4CCN(C)CC4)cc3)[C@H](c3ccccc3)C[C@@H](O)[C@@]21O (racemic; form 2)
active: Activity [1] | Activity [2] | Activity [3] | Activity [4] | Activity [5] | Activity [6] | inhibition [7] Dose-Dependent Effect | Activity [8]
